The experiment concerns Alzheimer's disease model mice.

Structures are written as SMILES.

The values that follow come from patent publication US20200113854A1, “Composition for Improving Brain Function” (MORINAGA MILK INDUSTRY CO., LTD., priority 2017, published 2020).

Description: With reference to NPL 6, Alzheimer's disease model mice were prepared according to the following procedure and the improvement effect of acetic acid was evaluated.
Taking the day when the administration was started as Day 1, amyloid was injected on Day 3. Specifically, an animal was anesthetized by intraperitoneally administering 40 mg/kg of pentobarbital sodium (Tokyo Chemical Industry Co., Ltd.) (amount of liquid administered: 10 mL/kg). After anesthesia, levobupivacaine hydrochloride (Popscaine (registered tradename) 0.25% inj., Maruishi Pharmaceutical Co. Ltd.) was subcutaneously administered (0.1 mL) to the scalp. After anesthesia, hair of a parietal region of the animal was cut and the head was fixed on a brain stereotaxic apparatus.
The scalp was disinfected with ethanol for disinfection and then was cut to expose the cranial bone. […]
An animal was placed in any one arm of the Y-shaped maze and was allowed to freely sleuth in the maze for 8 minutes. The order of the arms that the animal moved during the measurement period was recorded and the number of the movements to arms was counted and taken as a total entry number. […]
A spontaneous alternation action rate was calculated with the following formula. […]

Consider `CC(=O)[O-].[Na+]` [Sodium acetate, sodium acetate], for which, for the setting “Amyloid β injection group, 150 mM sodium acetate with drinking water, Y-maze 8 minutes, p < 0.01 vs Amyloid β + physiological saline”, the “Spontaneous alternation action rate (%)” value stood at 67.5%. Besides, the “cognitive function of Alzheimer disease model mice” value (intake of 150 mM sodium acetate with drinking water) is “improved a cognitive function”.
